Reference: patent US11325980B2, “Combination therapy using a LIV1-ADC and a chemotherapeutic” (SEATTLE GENETICS, INC., priority 2016, dated 2022)

Tested on: MCF-7 cells
Assay: In vivo tumor growth inhibition (TGI), MCF-7 cells implanted subcutaneously in NSG mice
Parameters: species or system NOD Scid Gamma (NSG) mice
Details: for ranking of combinatorial benefit in vivo: combined with SGN-LIV1A, doses of Table 2, nab-paclitaxel 10 mg/kg; for Expected combination TGI: expected additive; for Combinatorial benefit: observed minus expected combination TGI; for TGI: single agent
Protocol: NOD Scid Gamma (NSG) mice were obtained from Jackson Laboratory and implanted with 17-β-estradiol pellet (Innovative Research of America; Sarasota, Fla.) one day prior to cell implant. Five million MCF-7 cells were implanted subcutaneously with Matrigel (BD Biosciences; Franklin Lakes, N.J.) and tumor volume was determined by a digital caliper twice a week, using the formula: volume=½×length width^2.
Mice received treatments when the average tumor volume reached 100 mm^3. The treatment regimen for each agent was: doxorubicin, 1 mg/kg q4dx3 intravenous (IV); SGN-LIV1, 1 mg/kg q4dx4 intraperitoneal (IP); […]; carboplatin 10 mg/kg q7dx3 IP; cyclophosphamide, 40 mg/kg q7dx3 IV; gemcitabine 20 mg/kg q7dx2 IP; and paclitaxel 10 mg/kg q3dx5 IP. Combination groups received the first dose of SGN-LIV1A and combination drug on the same day. n=6 for each group. The effects of each drug and their combination on tumor growth were plotted in FIGS. 6-8.
To determine the combined benefit in vivo, tumor growth inhibition (TGI) was compared using the area under the curve between untreated, single agent groups, and combined groups on the date the untreated animals were euthanized (Table 2). […] Thus, the expected additive TGI for combination is […].

[1] = named drug 10 mg/kg combined with 1 mg/kg SGN-LIV1A
[2] = named drug 40 mg/kg combined with 1 mg/kg SGN-LIV1A
[3] = named drug 20 mg/kg combined with 1 mg/kg SGN-LIV1A
[4] = named drug 1 mg/kg combined with 1 mg/kg SGN-LIV1A
[5] = dose 1 mg/kg, AUC vs untreated on the date untreated animals were euthanized

Molecule: N.N.O=C([O-])C1(C(=O)[O-])CCC1.[Pt+2] [carboplatin]
- ranking of combinatorial benefit in vivo: highest combinatorial benefit
- Observed combination TGI [1]: 60%
- Expected combination TGI [1]: 52%
- Combinatorial benefit (named drug 10 mg/kg with 1 mg/kg SGN-LIV1A): 8%
- TGI (dose 10 mg/kg, AUC vs untreated): 21%

Molecule: O=P1(N(CCCl)CCCl)NCCCO1 (centres unmarked) [cyclophosphamide]
- Observed combination TGI [2]: 39%
- Expected combination TGI [2]: 45%
- Combinatorial benefit (named drug 40 mg/kg with 1 mg/kg SGN-LIV1A): −6%
- TGI (dose 40 mg/kg, AUC vs untreated): 10%

Molecule: Nc1ccn([C@@H]2O[C@H](CO)[C@@H](O)C2(F)F)c(=O)n1 [gemcitabine]
- Observed combination TGI [3]: 54%
- Expected combination TGI [3]: 51%
- combined effect in vivo (named drug 20 mg/kg when combined with SGN-LIV1A): nearly additive
- Combinatorial benefit (named drug 20 mg/kg with 1 mg/kg SGN-LIV1A): 3%
- TGI (dose 20 mg/kg, AUC vs untreated): 20%

Molecule: COc1cccc2c1C(=O)c1c(O)c3c(c(O)c1C2=O)C[C@@](O)(C(=O)CO)C[C@@H]3O[C@H]1C[C@H](N)[C@H](O)[C@H](C)O1 [doxorubicin]
- ranking of combinatorial benefit in vivo: highest combinatorial benefit
- Observed combination TGI [4]: 75%
- Expected combination TGI [4]: 55%
- Combinatorial benefit (named drug 1 mg/kg with 1 mg/kg SGN-LIV1A): 20%
- TGI [5]: 26%

B1: SGN-LIV1A: LIV-1-directed antibody-drug conjugate: humanized antibody hLIV22, valine-citrulline linker, monomethyl auristatin E; average of 4 MMAE per antibody (conjugate, chains of the INN, looked up)
VH: QVQLVQSGAEVKKPGASVKVSCKASGLTIEDYYMHWVRQAPGQGLEWMGWIDPENGDTEYGPKFQGRVTMTRDTSINTAYMELSRLRSDDTAVYYCAVHNAHYGTWFAYWGQGTLVTVSS
VL: DVVMTQSPLSLPVTLGQPASISCRSSQSLLHSSGNTYLEWYQQRPGQSPRPLIYKISTRFSGVPDRFSGSGSGTDFTLKISRVEAEDVGVYYCFQGSHVPYTFGGGTKVEIK
modifications: vedotin (vc-MMAE)
notes: LIV-1-directed antibody-drug conjugate: humanized antibody hLIV22, valine-citrulline linker, monomethyl auristatin E; average of 4 MMAE per antibody
- TGI [5]: 39%
